Experimental data: patent publication US12030896B2, “PIKfyve inhibitors” (Mayo Foundation for Medical Education and Research, priority 2018, dated 2024)

Experiments:
[1] = test system: Human lymphoma cell lines; assay: Killing of human lymphoma cell lines; assay type: cell-based; details: 72 hours
Experimental: Human lymphoma cell lines were incubated for 72 hours with various concentrations of the compound, and survival determined by cell counting or by ATP assay, as shown in FIG. 7. In the lymphoma experiments, RPMI media (Life Technologies) was used as the base formulation for “complete” media. Trypsin was not needed for these non-adherent cell lines. For the “cell-counting” data, cells were pipetted up and down to evenly disburse, then 10 μL of the suspension was counted using an Accuri C6 cytometer, using on forward and side scatter to gate on a viable population.

[2] = test system: E2409 murine lymphoma cells; assay: E2409 lymphoma flank tumor survival study; assay type: in vivo, Nude mice; details: 1 mg daily IP injection vs vehicle only; p<0.02
Experimental: Nude mice were injected in the flank with 1 million E2409 murine lymphoma cells, and allowed to grow for 4 days, at which point a small detectable lump was observed on each mouse. Mice were injected daily by IP injection with 100 μl of vehicle (10% dmso, 20% cremaphor, 70% water) with or without 1 mg of the test compound. Mice were euthanized when tumor size exceeded 1500 mm^3.

[3] = Solubility; assay type: physicochemical
Experimental: The compound has a molecular weight of 428.5. It is soluble in DMSO. In addition, solutions of at least 10 mg/ml can be prepared using a mixture of DMSO (10%), cremaphor (20%), and water (70%).

With `Cc1ccc(Nc2nc(N/N=C/c3c[nH]c4ccccc34)nc(N3CCOCC3)n2)cc1` [Example 1, (E)-4-(2-((1H-indol-3-yl)methylene)hydrazinyl)-6-morpholino-N-(p-tolyl)-1,3,5-triazin-2-amine] the cell killing [1] was “killing”, the survival [2] was “prolonged survival” and the “solubility in DMSO” value ([3]; DMSO) was “soluble”. The “concentration of solutions that can be prepared” value ([3]; DMSO (10%), cremaphor (20%), and water (70%)) was “at least 10 mg/ml”.
